The target in one assay is Mcl-1 protein (UniProtKB primary accession number: Q07820) (Homo sapiens, UniProt Q07820). Kind of assay: Inhibition of Mcl-1 by fluorescence polarisation, Method 1. The settings on record: read-out: IC50 (M) Mcl-1 FP. Format: binding. Summed up:
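Fluorescence polarisation competition with an 11-point compound dilution series (final DMSO 5%). Mcl-1 protein at 5 nM and fluorescein-labelled ligand at 1 nM (final) in 10 mM HEPES, 150 mM NaCl, 0.05% Tween 20, pH 7.4.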
(In fluorescence polarisation assays a small probe gives low polarisation when free and higher when bound to something large.)

Assay [1] deals with H929 multiple myeloma tumour line. Nature of the assay: In vitro cytotoxicity, Microculture Tetrazolium Assay. Particulars: H929 cells, 48 hours exposure, read-out: IC50 (μM) MTT H929. The class given is cell-based. As for the experimental part:
The cytotoxicity studies were carried out on the H929 multiple myeloma tumour line.
The cells are distributed onto microplates and exposed to the test compounds for 48 hours.

In assay [2] the test system is AMO-1 multiple myeloma cells. Kind of assay: Quantification of the cleaved form of PARP in vivo (MSD ELISA, tumour lysates). The arrangement: species or system mice (SCID strain). The settings on record: activation factor: cleaved PARP in treated mice / control mice, AMO-1 xenograft in SCID mice, intraveinous or oral routes. Summed up: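 SCID mice bearing subcutaneous AMO-1 xenografts (1.10^7 cells) dosed intravenously or orally 12 to 14 days after grafting. Cleaved PARP in tumour lysates measured by MSD ELISA. Reported as activation factor, the ratio of treated to control cleaved PARP.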

Setting [3] is: fluorescence polarisation test, Method 2 values are underlined in the patent (underlining not visible here).
[4] abbreviates: Homo sapiens, NCI-H929, 48 h, MTT.
Where [5] appears, read: fluorescence polarisation test, Method 1, or Method 2 where the value is underlined (underlining not visible).
The mark [6] stands for this setting: Homo sapiens, NCI-H929, 48 h, cell viability.
Setting [7] is: fluorescence polarisation, Method 1, or Method 2.

Where two headings read alike, the source gives them in different places.

Consider 14 compounds from patent US9670227B2, “Thienopyrimidine derivatives, a process for their preparation and pharmaceutical compositions containing them” (LES LABORATOIRES SERVIER, priority 2013, dated 2017).

Chain of Mcl-1 protein (Q07820 whole entry): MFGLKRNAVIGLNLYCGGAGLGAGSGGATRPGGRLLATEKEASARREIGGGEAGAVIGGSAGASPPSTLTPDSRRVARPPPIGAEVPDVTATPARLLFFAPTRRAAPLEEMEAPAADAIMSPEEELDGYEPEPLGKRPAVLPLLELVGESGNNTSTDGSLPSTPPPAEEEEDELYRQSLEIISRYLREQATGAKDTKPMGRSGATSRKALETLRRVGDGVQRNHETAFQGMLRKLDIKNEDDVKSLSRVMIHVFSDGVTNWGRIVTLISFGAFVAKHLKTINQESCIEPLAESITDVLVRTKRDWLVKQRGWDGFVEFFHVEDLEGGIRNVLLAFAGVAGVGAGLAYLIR

One may read the IC50 as the concentration that gives 50% inhibition. As for `Cc1cnccc1-c1nccc(COc2ccccc2CC(Oc2ncnc3sc(-c4ccc(F)o4)c(-c4ccc(OCCN5CCN(C)CC5)c(Cl)c4C)c23)C(=O)O)n1` [Example 198, (2R)-2-{[(5Sa)-5-{3-chloro-2-methyl-4-[2-(4-methylpiperazin-1-yl)ethoxy]phenyl}-6-(5-fluorofuran-2-yl)thieno[2,3-d]pyrimidin-4-yl]oxy}-3-(2-{[2-(3-methylpyridin-4-yl)pyrimidin-4-yl]methoxy}phenyl)propanoic acid], the IC50 at Mcl-1 protein (setting [3]) came to 7.7e-09 M; in assay [1] (setting [4]) it was 0.002 µM. In addition, the PARP fold in assay [2] came out at 280 fold.

`COCCOCCOC(=O)C(Cc1ccccc1OCc1ccnc(-c2ccccc2OC)n1)Oc1ncnc2sc(-c3ccc(F)cc3)c(-c3ccc(OCCN4CCN(C)CC4)c(Cl)c3C)c12` [Example 814, 2-(2-methoxyethoxy)ethyl (2R)-2-{[(5Sa)-5-{3-chloro-2-methyl-4-[2-(4-methylpiperazin-1-yl)ethoxy]phenyl}-6-(4-fluorophenyl)thieno[2,3-d]pyrimidin-4-yl]oxy}-3-(2-{[2-(2-methoxyphenyl)pyrimidin-4-yl]methoxy}phenyl)propanoate]: the 50% inhibitory concentration (IC50) at Mcl-1 protein (setting [5]) was 6.39e-07 M; in assay [1] (setting [6]), 0.314 µM. For the same compound, in assay [2], the PARP fold amounted to 118.5 fold.

With `Cc1c(-c2c(-c3ccco3)sc3ncnc(OC(Cc4ccccc4OCc4ccnc(OCC5CC5)n4)C(=O)O)c23)ccc(OCCN2CCN(C)CC2)c1Cl` [Example 256, (2R)-2-{[(5Sa)-5-{3-chloro-2-methyl-4-[2-(4-methylpiperazin-1-yl)ethoxy]phenyl}-6-(furan-2-yl)thieno[2,3-d]pyrimidin-4-yl]oxy}-3-(2-{[2-(cyclopropylmethoxy)pyrimidin-4-yl]methoxy}phenyl)propanoic acid], the figures for the IC50 (at Mcl-1 protein (setting [3]); in assay [1] (setting [4])) were 4.8e-09 M and 0.006 µM, respectively. This compound also displayed a PARP fold in assay [2] of 125.1 fold.

As to `COc1ccccc1-c1nccc(COc2ccccc2CC(Oc2ncnc3sc(-c4ccc(F)cc4)c(-c4ccc(OCCN5CCN(C)CC5)c(Cl)c4C)c23)C(=O)OCOC(=O)C(C)(C)C)n1` [Example 810, {[(2R)-2-{[(5Sa)-5-{3-chloro-2-methyl-4-[2-(4-methylpiperazin-1-yl)ethoxy]phenyl}-6-(4-fluorophenyl)thieno[2,3-d]pyrimidin-4-yl]oxy}-3-(2-{[2-(2-methoxyphenyl)pyrimidin-4-yl]methoxy}phenyl)propanoyl]oxy}methyl 2,2-dimethylpropanoate], the IC50 at Mcl-1 protein (setting [5]) came out at 4.2e-07 M; in assay [1] (setting [6]) it was 0.001 µM. Further, the PARP fold in assay [2] turned out to be 122.4 fold.

For the compound `CCOc1nccc(COc2ccccc2CC(Oc2ncnc3sc(-c4ccc(F)cc4)c(-c4ccc(OCCN5CCN(C)CC5)c(Cl)c4C)c23)C(=O)O)n1` [Example 57, (2R)-2-{[(5Sa)-5-{3-chloro-2-methyl-4-[2-(4-methylpiperazin-1-yl)ethoxy]phenyl}-6-(4-fluorophenyl)thieno[2,3-d]pyrimidin-4-yl]oxy}-3-{2-[(2-ethoxypyrimidin-4-yl)methoxy]phenyl}propanoic acid], the IC50 was 5e-09 M on Mcl-1 protein (setting [3]) and 0.008 µM in assay [1] (setting [4]). The compound further came in with a PARP fold in assay [2] of 198.3 fold.

As for `COc1ccccc1-c1nccc(COc2ccccc2CC(Oc2ncnc3sc(-c4ccc(F)cc4)c(-c4ccc(OCCN5CCN(C)CC5)c(Cl)c4C)c23)C(=O)OCC(F)(F)F)n1` [Example 808, 2,2,2-trifluoroethyl (2R)-2-{[(5Sa)-5-{3-chloro-2-methyl-4-[2-(4-methylpiperazin-1-yl)ethoxy]phenyl}-6-(4-fluorophenyl)thieno[2,3-d]pyrimidin-4-yl]oxy}-3-(2-{[2-(2-methoxyphenyl)pyrimidin-4-yl]methoxy}phenyl)propanoate], the IC50 at Mcl-1 protein (setting [5]) came out at 1.72e-07 M; in assay [1] (setting [6]), 0.01 µM. Besides, the PARP fold in assay [2] is given as 155 fold.

With `Cc1c(-c2c(-c3ccc(F)cc3)sc3ncnc(OC(Cc4ccccc4OCc4ccnc(OCC(F)(F)F)n4)C(=O)O)c23)ccc(OCCN2CCN(C)CC2)c1Cl` [Example 58, (2R)-2-{[(5Sa)-5-{3-chloro-2-methyl-4-[2-(4-methylpiperazin-1-yl)ethoxy]phenyl}-6-(4-fluorophenyl)thieno[2,3-d]pyrimidin-4-yl]oxy}-3-(2-{[2-(2,2,2-trifluoroethoxy)pyrimidin-4-yl]methoxy}phenyl)propanoic acid], the 50% inhibitory concentration (IC50) at Mcl-1 protein (setting [3]) was 4e-09 M; in assay [1] (setting [4]), 0.01 µM. In assay [2], this compound yielded a PARP fold of 181.9 fold.

For `CCc1c(-c2c(-c3ccc(F)cc3)sc3ncnc(O[C@H](Cc4ccccc4OCc4ccnc(-c5ccccc5OC)n4)C(=O)O)c23)ccc(OCCN2CCN(C)CC2)c1Cl` [Example 741, (2R)-2-{[(5Sa)-5-{3-chloro-2-ethyl-4-[2-(4-methylpiperazin-1-yl)ethoxy]phenyl}-6-(4-fluorophenyl)thieno[2,3-d]pyrimidin-4-yl]oxy}-3-(2-{[2-(2-methoxyphenyl)pyrimidin-4-yl]methoxy}phenyl)propanoic acid], the IC50 at Mcl-1 protein (setting [7]) was found to be 9.48e-10 M; in assay [1] (MTT), 0.002 µM. The PARP fold in assay [2] is recorded as 244 fold.

For `COc1ccccc1-c1nccc(COc2ccccc2CC(Oc2ncnc3sc(-c4ccc(F)cc4)c(-c4ccc(OCCN5CCN(C)CC5)c(Cl)c4Cl)c23)C(=O)O)n1` [Example 743, (2R)-2-{[(5Sa)-5-{2,3-dichloro-4-[2-(4-methylpiperazin-1-yl)ethoxy]phenyl}-6-(4-fluorophenyl)thieno[2,3-d]pyrimidin-4-yl]oxy}-3-(2-{[2-(2-methoxyphenyl)pyrimidin-4-yl]methoxy}phenyl)propanoic acid], the IC50 came out at 9.48e-10 M at Mcl-1 protein (setting [7]) and 0.005 µM in assay [1] (setting [4]). The compound also gave a PARP fold in assay [2] of 147.3 fold.

With `CC#Cc1sc2ncnc(OC(Cc3ccccc3OCc3ccnn3CC(F)(F)F)C(=O)O)c2c1-c1ccc(OCCN2CCN(C)CC2)c(Cl)c1C` [Example 489, (2R)-2-{[(5Sa)-5-{3-chloro-2-methyl-4-[2-(4-methylpiperazin-1-yl)ethoxy]phenyl}-6-(prop-1-yn-1-yl)thieno[2,3-d]pyrimidin-4-yl]oxy}-3-(2-{[1-(2,2,2-trifluoroethyl)-1H-pyrazol-5-yl]methoxy}phenyl)propanoic acid], the IC50 at Mcl-1 protein (setting [7]) stood at 1.2e-09 M; in assay [1] (setting [4]), 0.026 µM. In assay [2], this compound came in with a PARP fold of 233.2 fold.

In the case of `CC#Cc1sc2ncnc(OC(Cc3ccccc3OCc3ccnc(N4CCOCC4)n3)C(=O)O)c2c1-c1ccc(OCCN2CCN(C)CC2)c(Cl)c1C` [Example 485, (2R)-2-{[(5Sa)-5-{3-chloro-2-methyl-4-[2-(4-methylpiperazin-1-yl)ethoxy]phenyl}-6-(prop-1-yn-1-yl)thieno[2,3-d]pyrimidin-4-yl]oxy}-3-(2-{[2-(morpholin-4-yl)pyrimidin-4-yl]methoxy}phenyl)propanoic acid], the values for the IC50 (at Mcl-1 protein (setting [7]); in assay [1] (setting [4])) were 4.3e-09 M and 0.012 µM, respectively. Besides, in assay [2], the PARP fold amounted to 110.8 fold.

In the case of `Cc1c(-c2c(-c3ccc(F)cc3)sc3ncnc(OC(Cc4ccccc4OCc4ccnc(-c5ccccc5F)n4)C(=O)O)c23)ccc(OCCN2CCN(C)CC2)c1Cl` [Example 114, (2R)-2-{[(5Sa)-5-{3-chloro-2-methyl-4-[2-(4-methylpiperazin-1-yl)ethoxy]phenyl}-6-(4-fluorophenyl)thieno[2,3-d]pyrimidin-4-yl]oxy}-3-(2-{[2-(2-fluorophenyl)pyrimidin-4-yl]methoxy}phenyl)propanoic acid], the values for the IC50 (at Mcl-1 protein (setting [3]); in assay [1] (setting [4])) were 2.1e-09 M and 0.005 µM, respectively. Also, the PARP fold in assay [2] turned out to be 158.2 fold.

As to `Cc1c(-c2c(-c3ccc(F)cc3)sc3ncnc(OC(Cc4ccccc4OCc4ccnc(-c5ccccc5OC(C)C)n4)C(=O)O)c23)ccc(OCCN2CCN(C)CC2)c1Cl` [Example 723, (2R)-2-{[(5Sa)-5-{3-chloro-2-methyl-4-[2-(4-methylpiperazin-1-yl)ethoxy]phenyl}-6-(4-fluorophenyl)thieno[2,3-d]pyrimidin-4-yl]oxy}-3-[2-({2-[2-(propan-2-yloxy)phenyl]pyrimidin-4-yl}methoxy)phenyl]propanoic acid], the results for the IC50 (on Mcl-1 protein (setting [7]); in assay [1] (setting [4])) were 1.18e-09 M and 0.004 µM, respectively. The PARP fold in assay [2] is 191.2 fold.

Turning to `CCc1ccccc1-c1nccc(COc2ccccc2C[C@@H](Oc2ncnc3sc(-c4ccc(F)cc4)c(-c4ccc(OCCN5CCN(C)CC5)c(Cl)c4C)c23)C(=O)O)n1` [Example 726, (2R)-2-{[(5Sa)-5-{3-chloro-2-methyl-4-[2-(4-methylpiperazin-1-yl)ethoxy]phenyl}-6-(4-fluorophenyl)thieno[2,3-d]pyrimidin-4-yl]oxy}-3-(2-{[2-(2-ethylphenyl)pyrimidin-4-yl]methoxy}phenyl)propanoic acid], the IC50 on Mcl-1 protein (setting [7]) was 1.18e-09 M; in assay [1] (MTT), 0.011 µM. In assay [2], this compound gave a PARP fold of 112.5 fold.
